Data published in patent publication US6017914A, “Benzo[b]thiophene compounds, intermediates, formulations, and methods” (Eli Lilly and Company, priority 1997, dated 2000).

Legend:
Serum Cholesterol = assay: Serum cholesterol in ovariectomized rats (Cholesterol Analysis); type: in vivo, female Sprague Dawley rats; conditions: daily for 4 days
uterus = assay: Post-menopausal ovariectomized rat model: wet uterine weight; type: in vivo, female Sprague Dawley rats; conditions: daily for 4 days

Compound	Serum Cholesterol (% Dec.) versus ovariectomized controls (Serum Cholesterol; 0.1 mg/kg PO) [%]	Uterine Wt. (% Inc.) versus the ovariectomized controls (uterus; 0.1 mg/kg PO) [%]	Uterine Wt. (% Inc.) versus the ovariectomized controls (uterus; 1 mg/kg PO) [%]	Uterine Wt. (% Inc.) versus the ovariectomized controls (uterus; 10 mg/kg PO) [%]	Serum Cholesterol (% Dec.) versus ovariectomized controls (Serum Cholesterol; 1 mg/kg PO) [%]	Serum Cholesterol (% Dec.) versus ovariectomized controls (Serum Cholesterol; 10 mg/kg PO) [%]
COC(=O)c1ccc2c(C(=O)c3ccc(OCCN4CCCCC4)cc3)c(-c3ccc(O)cc3)sc2c1.Cl [Example 1, [2-(4-Hydroxyphenyl)-6-methoxycarbonylbenzo[b]thien-3-yl][4-[2-(1-piperidinyl)ethoxy]phenyl]methanone Hydrochloride]	-8.6	46.9	19.1	45.2		
CCCCOC(=O)c1ccc2c(C(=O)c3ccc(OCCN4CCCCC4)cc3)c(-c3ccc(O)cc3)sc2c1 [Example 2, [2-(4-Hydroxyphenyl)-6-n-butoxycarbonylbenzo[b]thien-3-yl][4-[2-(1-piperidinyl)ethoxy]phenyl]methanone]	-1.2	19.4	16.8	52.5		
CC(C)COC(=O)c1ccc2c(C(=O)c3ccc(OCCN4CCCCC4)cc3)c(-c3ccc(O)cc3)sc2c1 [Example 3]	-2.4	11.8	21.7	47.1	8.7	58.0
Cl.O=C(O)c1ccc2c(C(=O)c3ccc(OCCN4CCCCC4)cc3)c(-c3ccc(O)cc3)sc2c1 [Example 4, [2-(4-Hydroxyphenyl)-6-carboxybenzo[b]thien-3-yl][4-[2-(1-piperidinyl)ethoxy]phenyl]methanone Hydrochloride]	0.6	18.8	27.2	29.6		
CC(=O)c1ccc2c(C(=O)c3ccc(OCCN4CCCCC4)cc3)c(-c3ccc(O)cc3)sc2c1 [Example 5, [2-(4-Hydroxyphenyl)-6-acetylbenzo[b]thien-3-yl][4-[2-(1-piperidinyl)ethoxy]phenyl]methanone]	-6.3	18.8	51.8	69.4		
C#Cc1ccc2c(C(=O)c3ccc(OCCN4CCCCC4)cc3)c(-c3ccc(O)cc3)sc2c1 [Example 6, [2-(4-Hydroxyphenyl)-6-ethynylbenzo[b]thien-3-yl][4-[2-(1-piperidinyl)ethoxy]phenyl]methanone]		14.3	27.8	22.5		
